Data: PubChem BioAssay (NCI)
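Dose response: 5 concentrations. Exposure: 48 h. Format: 96-well plates. Endpoint: linear interpolation; highest concentration if not reached. At the GI50, growth is halved. TGI marks complete inhibition of growth.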

Assays:
Assay in all cases: inhibition of tumour cell growth, NCI panel, 48 h
DU-145 prostate = tested on: DU-145 prostate
SF-539 CNS = tested on: SF-539 CNS
NCI-H460 lung = tested on: NCI-H460 lung
SK-OV-3 ovarian = tested on: SK-OV-3 ovarian
SK-MEL-2 melanoma = tested on: SK-MEL-2 melanoma
NCI-H522 lung = tested on: NCI-H522 lung
SK-MEL-28 melanoma = tested on: SK-MEL-28 melanoma
UO-31 renal = tested on: UO-31 renal
SF-268 CNS = tested on: SF-268 CNS
HS 578T breast = tested on: HS 578T breast

SMILES	TGI (DU-145 prostate)	TGI (SF-539 CNS)	TGI (NCI-H460 lung)	TGI (SK-OV-3 ovarian)	TGI (SK-MEL-2 melanoma)	TGI (NCI-H522 lung)	TGI (SK-MEL-28 melanoma)	TGI (UO-31 renal)	TGI (SF-268 CNS)	TGI (HS 578T breast)	GI50 (DU-145 prostate)	GI50 (SF-539 CNS)	GI50 (NCI-H460 lung)	GI50 (SK-OV-3 ovarian)	GI50 (SK-MEL-2 melanoma)	GI50 (NCI-H522 lung)	GI50 (SK-MEL-28 melanoma)	GI50 (UO-31 renal)	GI50 (SF-268 CNS)	GI50 (HS 578T breast)
CC(C)(C)[Si](C)(C)OCC1OC(n2cnc3c(=O)[nH]cnc32)CC1O (stereo unspecified)	> 100 µM	> 100 µM	> 100 µM	> 100 µM	> 100 µM	> 100 µM	> 100 µM	> 100 µM	> 100 µM	> 100 µM	–	–	–	–	–	–	–	–	–	–
CN1CCC2(CC1)N=C(SCC(=O)Nc1cnc3ccccc3c1)C(c1ccc(Br)cc1)=N2	10.4 µM	3.41 µM	4.28 µM	15.9 µM	3.88 µM	3.82 µM	3.3 µM	2.68 µM	14.7 µM	7.27 µM	3.24 µM	1.74 µM	2.03 µM	4.25 µM	1.93 µM	1.91 µM	1.79 µM	1.37 µM	3.46 µM	2.23 µM
O=C(O)CCC(c1ccccc1)(c1ccccc1)c1ccccc1	> 100 µM	> 100 µM	> 91.2 µM	> 100 µM	> 84 µM	> 100 µM	> 100 µM	> 100 µM	> 92.9 µM	> 100 µM	–	–	–	–	–	55.3 µM	–	–	–	–
Cn1c(CCCC(=O)O)nc2cc(N(CCCl)CCCl)ccc21	> 100 µM	> 94.1 µM	> 100 µM	> 100 µM	> 100 µM	> 100 µM	> 100 µM	> 100 µM	> 100 µM	> 100 µM	> 80.6 µM	65.1 µM	58.7 µM	> 86.4 µM	> 100 µM	> 93 µM	> 100 µM	> 100 µM	68.5 µM	> 83.3 µM
COc1ccc(OC)c(Nc2nc3nonc3nc2Nc2cccc(Br)c2)c1	> 100 µM	29.5 µM	> 100 µM	4.1 µM	3.84 µM	0.775 µM	> 100 µM	53.7 µM	> 100 µM	8.14 µM	3.4 µM	1.25 µM	0.504 µM	0.486 µM	0.509 µM	0.254 µM	0.779 µM	0.622 µM	0.982 µM	0.807 µM
COc1ccc(Cn2cc(COc3cc(/C=C/C(=O)c4cc(OC)c(OC)c(OC)c4)ccc3OC)nn2)cc1	5.2 µM	12.9 µM	40.4 µM	9.18 µM	42.1 µM	4.18 µM	> 100 µM	> 100 µM	> 100 µM	> 100 µM	2.41 µM	3.02 µM	4.39 µM	3.02 µM	8.33 µM	1.69 µM	7.45 µM	4.71 µM	3.75 µM	7.88 µM
NS(=O)(=O)c1ccc(N=Nc2ccc[nH]c2=O)cc1	> 100 µM	> 100 µM	> 100 µM	> 100 µM	> 100 µM	> 100 µM	> 100 µM	> 100 µM	> 100 µM	> 100 µM	–	–	–	–	–	–	–	–	–	–
CC1(C)C(N2CCOCC2)CS1(=O)=O (stereo unspecified)	> 10 µM	> 10 µM	> 10 µM	> 10 µM	> 10 µM	> 10 µM	> 10 µM	> 10 µM	> 10 µM	> 10 µM	–	–	–	–	–	–	–	–	–	–
O=C(/C=C/c1ccccc1)c1cccc2ccccc12	13 µM	11 µM	3.86 µM	11.3 µM	8.3 µM	8.41 µM	16.6 µM	12.6 µM	5.13 µM	> 100 µM	3.63 µM	3.5 µM	1.84 µM	3.11 µM	2.97 µM	2.75 µM	5.02 µM	2.68 µM	1.99 µM	5.43 µM
O=C1/C(=C\c2ccc(F)cc2)CN(C(=O)c2ccccc2F)C/C1=C\c1ccc(F)cc1	4.15 µM	3.2 µM	6.71 µM	4.69 µM	4.61 µM	3.15 µM	3.36 µM	2.94 µM	4.97 µM	20.3 µM	2.07 µM	1.72 µM	2.51 µM	2.23 µM	2.04 µM	1.61 µM	1.82 µM	1.49 µM	2.02 µM	3.66 µM
CN1CCN(CCCNC(=O)c2c3c(n4ccccc24)C(=O)c2ncccc2C3=O)CC1	9.37 µM	6.56 µM	1.75 µM	19.6 µM	11.4 µM	3.86 µM	19.1 µM	30.7 µM	24.4 µM	51.8 µM	1.6 µM	1.99 µM	0.316 µM	3.46 µM	2.67 µM	1.01 µM	4.57 µM	1.81 µM	1.28 µM	5.32 µM
CCN(CC)CCNC(=O)c1cccc2c1-c1ccccc1C2=O	> 100 µM	> 100 µM	> 100 µM	> 100 µM	> 100 µM	> 100 µM	> 100 µM	> 100 µM	> 100 µM	> 100 µM	> 100 µM	95.1 µM	> 100 µM	> 100 µM	> 100 µM	> 100 µM	> 100 µM	> 100 µM	> 100 µM	> 100 µM
COc1cccc2c1C(=O)c1c(O)c3c(c(O)c1C2=O)C[C@@](O)(/C(CO)=N/NC(=O)CCCCCN1C(=O)C=CC1=O)C[C@@H]3O[C@H]1C[C@H](N)[C@H](O)[C@H](C)O1	38.6 µM	7.82 µM	1.95 µM	36.8 µM	5.33 µM	4.21 µM	5.67 µM	27.9 µM	12.4 µM	9.64 µM	0.554 µM	0.734 µM	0.0889 µM	1.63 µM	1.68 µM	0.56 µM	1.61 µM	3.47 µM	0.648 µM	1.69 µM
